Assay results: article PMC6273715, “Synthesis and Evaluation of New Benzodioxole- Based Thiosemicarbazone Derivatives as Potential Antitumor Agents” (Molecules, 2016)

Assays:
ribonucleotide reductase = test system: ribonucleotide reductase; parameters: method as in PMID 21425997, PMID 22655252, PMID 22963201, PMID 19601577, PMID 26335599; conditions: both enzyme and cell assays; cited from earlier work
C6 cells [1] = assay: Annexin V-PI flow cytometry of apoptosis, C6; type: cell-based; conditions: IC50 dose, 24 h
Method: (§1) Annexin V staining protocol was applied according to the manufacturer’s instructions (BD Pharmingen). The cells were then briefly washed with cold phosphate buffer saline (PBS) and suspended in a binding buffer at a concentration of 1 × 10^6 cells/mL. Then, 100 µL of this solution containing 1 × 10^5 cells was transferred to a 5 mL test tube. After 5 µL of Annexin-V and PI was added, the cells were incubated for 15 min at room temperature in the dark. Then 400 µL of 1x Binding Buffer was added to each tube and the cells were processed for data acquisition, and analyzed on a Becton–Dickinson FACS Aria using […] Version 6.1.1. Software (BD Biosciences, San Jose, CA, USA).

SIRT1 = assay: Sirtuin-1 detection by ELISA in C6 glioma cells; type: cell-based, rat; conditions: 24 h
A549 cells [2] = assay: Annexin V-PI flow cytometry of apoptosis, A549; type: cell-based; conditions: IC50 dose, 24 h
Method: as §1

A549 cells [3] = assay: Mitochondrial membrane potential (JC-1) flow cytometry, A549; type: cell-based, human; conditions: IC50 dose, 24 h
Method: (§2) During apoptosis, several key events occur in mitochondria including the release of cytochrome c, changes in electron transport, and loss of mitochondrial transmembrane potential (ΔΨm). For this reason, ΔΨm is an important parameter of mitochondrial function in apoptosis.
(§3) The cells were seeded in six-well plates at a density of 10^5 cells/mL, and the IC50 dose of compounds 2, 5 and 10 was added to cells. The cells were incubated in 5% CO2 air-conditioned atmosphere at 37 °C. […] 5,5′,6,6′-Tetrachloro-1,1′,3,3′-tetraethylbenzimidazolylcarbocyanine iodide (JC-1) dye solution (1× assay buffer + JC-1 stock solution) was added to the cells. The stock solution was prepared by dissolving DMSO. Then the samples were incubated at a temperature of 37 °C for 10–15 min. After incubation, the cells were washed twice with an assay buffer and analyzed by BD FACS Aria Cell Sorter Software version 6.1.1 flow cytometry (BD Biosciences). The cells showing mitochondrial membrane potential disruption were determined as a percentage of all cells.

C6 rat glioma cells = assay: MTT cytotoxicity assay, C6; type: cell-based; conditions: MTT, 24 h; read-out: IC50 C6 Cell Line
Method: (§4) C6 Rat glioma and NIH/3T3 mouse embryonic fibroblast cells were incubated in Dulbecco’s Modified Eagle’s Medium (DMEM) (Sigma, Deisenhofen, Germany) supplemented with 10% fetal calf serum (Gibco, Paisley, UK). A549 Human lung adenocarcinoma cells were incubated in 90% RPMI supplemented with 10% fetal bovine serum (Gibco). […] Exponentially growing cells were plated at 2 × 10^4 cells/mL into 96-well microtiter tissue culture plates (Nunc, Roskilde, Denmark) and incubated for 24 h before the addition of the drugs (the optimum cell number for cytotoxicity assays was determined in preliminary experiments).
(§5) The level of cellular 3-(4,5-dimethylthiazol-2-yl)-2,5-diphenyltetrazolium bromide (MTT) (Sigma) reduction was quantified as previously described in the literature with small modifications. […] At the end of this period, MTT was added to a final concentration of 0.5 mg/mL and the cells were incubated for 4 h at 37 °C. After the medium was removed, the formazan crystals formed by MTT metabolism were solubilized by addition of 200 µL DMSO to each well and absorbance was read at 540 nm with a microtiter plate spectrophotometer (Bio-Tek Plate Reader, Winooski, VT, USA). Every concentration was repeated in three wells.

C6 cells [4] = assay: DNA synthesis inhibition (BrdU ELISA), C6; type: cell-based, rat; conditions: C6, compound at its IC50, 24 h
Method: (§6) The immunostaining procedure was carried out with specific anti-BrdU antibodies in the S-phase of the cell cycle. DNA synthesis inhibitory effects of all compounds were evaluated for 24 h. A549 and C6 cell lines were incubated with three different concentrations of the compounds that were determined according to their IC50 values. Cisplatin was used as a positive control.
(§7) Analysis of DNA synthesis was measured by a Cell Proliferation ELISA, BrdU (colorimetric) kit (Roche, Mannheim, Germany). This immunostaining procedure is based on measuring the incorporation of bromodeoxyuridine (BrdU) into nuclear DNA in place of thymidine during the S-phase of the cell cycle using specific anti-BrdU antibodies. […] Firstly cells were seeded into 96 well flat-bottomed microtiter plates at a density of 2 × 10^3. […] Microtiter plates were incubated at 37 °C in a 5% CO2/95% air humidified atmosphere for 24 h. Cells were labeled with 10 µL BrdU solution for 2 h and then fixed. Anti-BrdU-POD (100 µL) was added and incubated for 90 min. Finally, wells were washed with BPS and cells were incubated with substrate. Absorbance of the samples was measured with an ELX808-IU Bio-Tek apparatus at 492 nm. All experiments were repeated two times. For each compound dose, dublicate wells were used.

C6 cells [5] = assay: Mitochondrial membrane potential (JC-1) flow cytometry, C6; type: cell-based, rat; conditions: IC50 dose, 24 h
Method: as §2, §3

A549 cells [6] = assay: DNA synthesis inhibition (BrdU ELISA), A549; type: cell-based, human; conditions: A549, compound at its IC50, 24 h
Method: as §6, §7

[7] = test system: A549 human lung adenocarcinoma cells; assay: MTT cytotoxicity assay, A549; type: cell-based; conditions: MTT, 24 h; read-out: IC50 A549 Cell Line
Method: as §4, §5

Structure (SMILES) | potency relative to hydroxyurea (ribonucleotide reductase) [times] | Early and Late Apoptotic Cells % C6 Cells (C6 cells [1]) [%] | SIRT1 Concentration (SIRT1; IC50/2 concentration) [ng/mL] | SIRT1 Concentration (SIRT1; IC50 concentration) [ng/mL] | Early and Late Apoptotic Cells % A549 Cells (A549 cells [2]) [%] | P2 (%) mitochondrial membrane polarized cells, A549 Cells (A549 cells [3]) [%] | P3 (%) mitochondrial membrane depolarized cells, A549 Cells (A549 cells [3]) [%] | IC50 (C6 rat glioma cells) [µM] | DNA synthesis inhibition percent (C6 cells [4]) [%] | P2 (%) mitochondrial membrane polarized cells, C6 Cells (C6 cells [5]) [%] | P3 (%) mitochondrial membrane depolarized cells, C6 Cells (C6 cells [5]) [%] | DNA synthesis inhibition percent (A549 cells [6]) [%] | IC50 [7] [µM]
NC(=S)NN=Cc1ncccc1N [Triapine, 3-aminopyridine-2-carboxaldehyde thiosemicarbazone] | 1000 | – | – | – | – | – | – | – | – | – | – | – | –
N.N.[Cl][Pt][Cl] [Cisplatin, reference compound] | – | 16.3 | 4.53 ± 1.37 | 3.32 ± 1.41 | 32.4 | 41.4 | 54.0 | 6.83 ± 0.28 | 53.95 | 46.6 | 48.4 | 55.73 | 3 ± 0.88
